Experimental data published in PMC9021598, “Structural Basis of Human Dimeric α-Amino-β-Carboxymuconate-ε-Semialdehyde Decarboxylase Inhibition With TES-1025” (Frontiers in Molecular Biosciences, 2022).

Biological target: T1, human α-amino-β-carboxymuconate-ε-semialdehyde decarboxylase (ACMSD) (Homo sapiens, UniProt Q8TDX5)
T1 construct: recombinant hACMSD expressed in Pichia pastoris; homodimer
Assay: X-ray co-crystal structure at […] Å; Ki from coupled spectrophotometric assay (Dixon tight-binding competitive inhibition)
Format: biochemical

T1 sequence (Q8TDX5 whole entry): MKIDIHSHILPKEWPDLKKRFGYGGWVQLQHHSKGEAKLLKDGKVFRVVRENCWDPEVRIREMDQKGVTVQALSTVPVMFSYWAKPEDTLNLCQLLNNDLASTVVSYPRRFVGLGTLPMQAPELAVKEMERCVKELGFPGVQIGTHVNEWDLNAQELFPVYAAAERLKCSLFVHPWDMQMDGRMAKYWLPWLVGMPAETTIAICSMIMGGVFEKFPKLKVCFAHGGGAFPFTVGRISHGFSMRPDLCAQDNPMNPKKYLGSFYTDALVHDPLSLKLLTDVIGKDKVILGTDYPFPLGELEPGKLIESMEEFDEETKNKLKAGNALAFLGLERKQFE

## N#Cc1c(-c2cccs2)nc(SCc2cccc(CC(=O)O)c2)[nH]c1=O [compound 4, 2-[3-[(5-cyano-6-oxo-4-thiophen-2-yl-1H-pyrimidin-2-yl)sulfanylmethyl]phenyl]acetic acid]
  Ki: 0.85 ± 0.22 nM
